Patent US20240391928A1, “COMPOSITIONS FOR THE TREATMENT OF FOOD AND CHEMICAL ADDICTION AND METHODS OF MAKING AND USING SAME” (Duke University, priority 2021, published 2024)

How the values were obtained:
hGHSR1a^WT = hGHSR1a^WT (Homo sapiens, UniProt Q92847); experiment: Gαq-dependent intracellular Ca2+ mobilization (iCa2+, miAeq); type: cell-based; design: HEK293/T (transient); HEK293S Gαq knockout (transient, NanoBiT Gαq); settings: for Calcium signaling ECmax (%) / EC50: secondary assay of HTS hits; for Calcium signaling ECmax (%): normalized to L585; for EC50: read-out: Calcium signaling EC50; for inhibition of iCa2+ evoked by N8279, ghrelin or L585: 30 minute antagonist pretreatment
Chain of hGHSR1a^WT (Q92847 whole entry): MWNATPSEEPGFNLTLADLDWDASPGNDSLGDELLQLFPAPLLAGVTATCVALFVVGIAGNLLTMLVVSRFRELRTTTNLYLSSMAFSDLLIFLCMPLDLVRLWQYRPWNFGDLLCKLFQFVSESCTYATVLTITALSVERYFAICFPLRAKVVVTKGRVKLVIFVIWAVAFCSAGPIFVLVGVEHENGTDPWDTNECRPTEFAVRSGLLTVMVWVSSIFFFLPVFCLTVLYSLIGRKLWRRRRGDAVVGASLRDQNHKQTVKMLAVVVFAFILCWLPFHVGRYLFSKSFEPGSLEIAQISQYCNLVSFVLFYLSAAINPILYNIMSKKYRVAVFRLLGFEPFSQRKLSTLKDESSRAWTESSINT
Procedure: Gαq-Dependent Intracellular Ca^2+ Mobilization. […] Cells were split into and seeded into 10 cm dishes without antibiotic selection and grown to confluency overnight. The next morning, cells were serum starved in 10 mL of clear opti-MEM (supplemented with L-glutamine and HEPES; Gibco, Waltham, MA) for 3-4 hours in a 37° C. incubator with 5% CO2. Then, 25 μL of coelenterazine H (NanoLight Technology, Pinetop, AZ) was added to each 10 mL dish and incubated for another 1-2 hours. For antagonist assays, test compounds were either added directly to the media in 10 cm dishes, or cells were collected by gentle washing/trituration and plated onto white, clear-bottomed 96-well plates for 30 minutes—1 hour. Once the coelenterazine H (or antagonist) incubation was complete, cells were harvested from the 10 cm dish by gentle washing/trituration and collected in a 15 mL conical tube. Cell suspensions were then immediately subjected to assay by injecting cells onto a white, clear-bottomed 96-well plate containing 2× test compounds. Luminescence was read without delay and for 10 seconds per well. To control for cell number variability, cells were lysed in 2× lysis buffer (100 mM CaCl2+0.2% Triton-X) immediately following the assay. The max ligand-induced response (Ca^2+ mobilization: net-miAeq) over 10 seconds was normalized by dividing the ligand-induced luminescence counts (L-miAeq) by the ligand-induced luminescence counts (L-MiAeq) plus the luminescence measured upon cell lysis (Lysis-miAeq). Relative, lysis-normalized data were then normalized to the appropriate control/reference condition.
For experiments with WT and Gt KO HEK293/S cells, […] of hGHSR1a^WT, 10 μg of miAEQ, and 2.5 μg of pcDNA3.1 was transiently transfected into 10 cm dishes and incubated overnight. […] Twenty-four hours later, experiments proceeded in accordance with the procedures described above. To control for any possible kinetic differences in genetically modified cell lines or GHSR1a variants, the average ligand-induced response over 10 seconds was calculated, then normalized by dividing the L-miAeq by the L-miAeq plus the Lysis-miAeq and normalized to the appropriate control/reference condition.

[1] = biological target: human hGHSR1a-vasopressin receptor 2 tail chimera; experiment: β-arr2^GFP translocation, compound screening (U2OS); type: cell-based; settings: secondary assay of HTS hits; for EC50: read-out: Beta-arrestin translocation EC50; for Beta-arrestin translocation ECmax (%): normalized to L585

Compound: CCCCOCCCn1c(N)c(C(=O)OC(C)COC)c2nc3ccccc3nc21 (stereo not shown) [MLS000036469]
- Calcium signaling ECmax (%) (hGHSR1a^WT): 50%
- EC50 (hGHSR1a^WT): 0.00306 µM
- EC50 [1]: 147 µM

Compound: Cc1ccc2oc3c(c(=O)c2c1)C(c1cccc(Cl)c1)N(CCCN1CCOCC1)C3=O (stereo not shown) [MLS000103531]
- Calcium signaling ECmax (%) (hGHSR1a^WT): 8%
- EC50 (hGHSR1a^WT): 0.00032 µM
- Beta-arrestin translocation ECmax (%) [1]: 204%
- EC50 [1]: 6.3 µM

Compound: COc1cccc(C2c3c(oc4ccccc4c3=O)C(=O)N2CCCN2CCOCC2)c1 (stereo not shown) [MLS000115599]
- Calcium signaling ECmax (%) (hGHSR1a^WT): 71%
- EC50 (hGHSR1a^WT): 20.4 µM

Compound: CC(C)CCOc1cccc(C2c3c(oc4ccccc4c3=O)C(=O)N2CCCN2CCOCC2)c1 (stereo not shown) [MLS000115603]
- Calcium signaling ECmax (%) (hGHSR1a^WT): 48%
- EC50 (hGHSR1a^WT): 0.00681 µM
- EC50 [1]: ~4690 µM

Compound: CCOc1ccc(C2c3c(oc4ccccc4c3=O)C(=O)N2CCCN2CCOCC2)cc1OCC (stereo not shown) [MLS000115604]
- Calcium signaling ECmax (%) (hGHSR1a^WT): 51%
- EC50 (hGHSR1a^WT): 0.00804 µM
- Beta-arrestin translocation ECmax (%) [1]: 38%
- EC50 [1]: 0.00298 µM

Compound: CCCOc1ccc(C2c3c(oc4cc(C)c(C)cc4c3=O)C(=O)N2CCCN2CCOCC2)cc1 (stereo not shown) [MLS000115606]
- Beta-arrestin translocation ECmax (%) [1]: 24%
- EC50 [1]: 0.0312 µM

Compound: CCCOc1ccc(C2c3c(oc4cc(C)c(C)cc4c3=O)C(=O)N2CCCN(C)C)cc1OCC (stereo not shown) [MLS000115621]
- Calcium signaling ECmax (%) (hGHSR1a^WT): 126%
- EC50 (hGHSR1a^WT): 2.38 µM
- Beta-arrestin translocation ECmax (%) [1]: 0%

Compound: COc1cccc(C2c3c(oc4ccccc4c3=O)C(=O)N2CCCN2CCOCC2)c1 (stereo not shown) [MLS002585710]
- Calcium signaling ECmax (%) (hGHSR1a^WT): 56%
- EC50 (hGHSR1a^WT): 0.0176 µM

Compound: COc1ccc(C2c3c(oc4ccc(F)cc4c3=O)C(=O)N2Cc2ccc3c(c2)OCO3)cc1 (stereo not shown) [NCGC00101634]
- Calcium signaling ECmax (%) (hGHSR1a^WT): 61%
- EC50 (hGHSR1a^WT): 7.71 µM
- Beta-arrestin translocation ECmax (%) [1]: 10%
- EC50 [1]: 0.426 µM

Compound: CCCOc1ccc(C2c3c(oc4ccccc4c3=O)C(=O)N2c2ccc(C)cn2)cc1OCC (stereo not shown) [NCGC00101673]
- Calcium signaling ECmax (%) (hGHSR1a^WT): 115%
- EC50 (hGHSR1a^WT): 32.4 µM
- Beta-arrestin translocation ECmax (%) [1]: 49%
- EC50 [1]: 2.4 µM

Compound: CSc1ccc(C2c3c(oc4ccccc4c3=O)C(=O)N2CCCN2CCOCC2)cc1 (stereo not shown) [NCGC00101907]
- Calcium signaling ECmax (%) (hGHSR1a^WT): 40%
- EC50 (hGHSR1a^WT): 3.35 µM
- Beta-arrestin translocation ECmax (%) [1]: 39%
- EC50 [1]: 0.558 µM

Compound: C=CCOc1ccc(C2c3c(oc4ccc(C)cc4c3=O)C(=O)N2CCCN2CCOCC2)cc1 (stereo not shown) [NCGC00101909]
- EC50 (hGHSR1a^WT): ~3020 µM
- Beta-arrestin translocation ECmax (%) [1]: 64%
- EC50 [1]: 0.254 µM

Compound: Cc1ccc2oc3c(c(=O)c2c1)C(c1ccccc1F)N(CCCN1CCOCC1)C3=O (stereo not shown) [NCGC00101911]
- Calcium signaling ECmax (%) (hGHSR1a^WT): 44%
- EC50 (hGHSR1a^WT): 0.00226 µM

Compound: Cc1ccc2oc3c(c(=O)c2c1)C(c1cccc(O)c1)N(CCCN1CCOCC1)C3=O (stereo not shown) [NCGC00101913]
- EC50 (hGHSR1a^WT): ~18000 µM
- Beta-arrestin translocation ECmax (%) [1]: 153%
- EC50 [1]: 1.55 µM

Compound: COc1cc(C2c3c(oc4cc(C)c(C)cc4c3=O)C(=O)N2CCCN2CCOCC2)ccc1O (stereo not shown) [NCGC00101915]
- EC50 (hGHSR1a^WT): ~19200 µM
- Beta-arrestin translocation ECmax (%) [1]: 368%
- EC50 [1]: 13.6 µM

Compound: CCCOc1cccc(C2c3c(oc4cc(C)c(C)cc4c3=O)C(=O)N2CCCN2CCOCC2)c1 (stereo not shown) [NCGC00101917]
- Calcium signaling ECmax (%) (hGHSR1a^WT): 39%
- EC50 (hGHSR1a^WT): 0.0043 µM
- Beta-arrestin translocation ECmax (%) [1]: 20%
- EC50 [1]: 0.00424 µM

Compound: CCCOc1cccc(C2c3c(oc4ccc(F)cc4c3=O)C(=O)N2CCCN2CCOCC2)c1 (stereo not shown) [NCGC00101919]
- EC50 (hGHSR1a^WT): ~1520 µM
- Beta-arrestin translocation ECmax (%) [1]: 99%
- EC50 [1]: 1.74 µM

Compound: CCOc1cc(C2c3c(oc4ccccc4c3=O)C(=O)N2Cc2ccc(OC)cc2)ccc1O (stereo not shown) [NCGC00101920]
- EC50 (hGHSR1a^WT): ~18500 µM
- Beta-arrestin translocation ECmax (%) [1]: 9%
- EC50 [1]: 0.0165 µM

Compound: Cc1ccc2oc3c(c(=O)c2c1)C(c1ccc(O)cc1)N(CCCN(C)C)C3=O (stereo not shown) [NCGC00101937]
- Calcium signaling ECmax (%) (hGHSR1a^WT): 112%
- EC50 (hGHSR1a^WT): 2.78 µM
- Beta-arrestin translocation ECmax (%) [1]: 49%
- EC50 [1]: 0.855 µM

Compound: Cc1ccc2oc3c(c(=O)c2c1)C(c1ccccc1F)N(CCCN(C)C)C3=O (stereo not shown) [NCGC00101939]
- Calcium signaling ECmax (%) (hGHSR1a^WT): 121%
- EC50 (hGHSR1a^WT): 4.9 µM
- Beta-arrestin translocation ECmax (%) [1]: 20%
- EC50 [1]: 0.0116 µM

Compound: CCCCOc1ccc(C2c3c(oc4ccc(C)cc4c3=O)C(=O)N2CCCN(C)C)cc1OCC (stereo not shown) [NCGC00101941]
- EC50 (hGHSR1a^WT): ~26900 µM
- Beta-arrestin translocation ECmax (%) [1]: 83%
- EC50 [1]: 0.095 µM

Compound: O=C1c2oc3ccccc3c(=O)c2C(c2ccccc2F)N1Cc1ccc2c(c1)OCO2 (stereo not shown) [NCGC00101942]
- Calcium signaling ECmax (%) (hGHSR1a^WT): 57%
- Beta-arrestin translocation ECmax (%) [1]: 12%
- EC50 [1]: 0.528 µM

Compound: CCOc1cccc(C2c3c(oc4ccc(F)cc4c3=O)C(=O)N2CCOC)c1 (stereo not shown) [NCGC00101945]
- Calcium signaling ECmax (%) (hGHSR1a^WT): 63%
- EC50 (hGHSR1a^WT): 1.2 µM
- Beta-arrestin translocation ECmax (%) [1]: 7%
- EC50 [1]: 2 µM

Compound: Cc1ccc2oc3c(c(=O)c2c1)C(c1ccc(O)cc1)N(Cc1ccc2c(c1)OCO2)C3=O (stereo not shown) [NCGC00101948]
- EC50 (hGHSR1a^WT): ~11200 µM

Compound: Cc1cc(C)c2c(=O)c3c(oc2c1)C(=O)N(Cc1ccco1)C3c1ccc(F)cc1 (stereo not shown) [NCGC00116418]
- EC50 (hGHSR1a^WT): ~3010 µM

Compound: CC(C)c1ccc(C2c3c(oc4ccc(Cl)cc4c3=O)C(=O)N2CCCN2CCOCC2)cc1 (stereo not shown) [NCGC00119774]
- Calcium signaling ECmax (%) (hGHSR1a^WT): 75%
- EC50 (hGHSR1a^WT): 5.62 µM
- Beta-arrestin translocation ECmax (%) [1]: 163%
- EC50 [1]: 3.05 µM

Compound: Cc1ccc2oc3c(c(=O)c2c1)C(c1ccc([N+](=O)[O-])cc1)N(CCCN1CCOCC1)C3=O (stereo not shown) [NCGC00119776]
- Calcium signaling ECmax (%) (hGHSR1a^WT): 125%
- EC50 (hGHSR1a^WT): 12 µM
- Beta-arrestin translocation ECmax (%) [1]: 26%
- EC50 [1]: 0.0499 µM

Compound: O=C1c2oc3ccc(F)cc3c(=O)c2C(c2cccc([N+](=O)[O-])c2)N1CCCN1CCOCC1 (stereo not shown) [NCGC00119778]
- EC50 (hGHSR1a^WT): ~62000 µM

Compound: COc1cccc(C2c3c(oc4ccc(C)cc4c3=O)C(=O)N2CCCN2CCOCC2)c1OC (stereo not shown) [NCGC00136166]
- EC50 (hGHSR1a^WT): ~296 µM
- Beta-arrestin translocation ECmax (%) [1]: 11%
- EC50 [1]: 0.0716 µM

Compound: COc1ccc(OC)c(C2c3c(oc4ccc(C)cc4c3=O)C(=O)N2CCCN(C)C)c1 (stereo not shown) [NCGC00136184]
- Calcium signaling ECmax (%) (hGHSR1a^WT): 129%
- EC50 (hGHSR1a^WT): 13.1 µM
- Beta-arrestin translocation ECmax (%) [1]: 24%
- EC50 [1]: 2.33 µM

Compound: CCOc1ccc(C2c3c(oc4ccc(C)cc4c3=O)C(=O)N2CCCN2CCOCC2)cc1 (stereo not shown) [NCGC00141056]
- Calcium signaling ECmax (%) (hGHSR1a^WT): 68%
- EC50 (hGHSR1a^WT): 0.938 µM
- Beta-arrestin translocation ECmax (%) [1]: 19%
- EC50 [1]: 0.00219 µM

Compound: CCOc1ccc(C2c3c(oc4ccc(C)cc4c3=O)C(=O)N2CCCN(C)C)cc1 (stereo not shown) [NCGC00141058]
- Calcium signaling ECmax (%) (hGHSR1a^WT): 97%
- EC50 (hGHSR1a^WT): 1.29 µM
- Beta-arrestin translocation ECmax (%) [1]: 142%
- EC50 [1]: 2.03 µM

Compound: COc1ccc(C2c3c(oc4ccc(C)cc4c3=O)C(=O)N2CCCN2CCOCC2)cc1OC (stereo not shown) [NCGC00141954]
- Calcium signaling ECmax (%) (hGHSR1a^WT): 105%
- EC50 (hGHSR1a^WT): 0.714 µM
- Beta-arrestin translocation ECmax (%) [1]: 196%
- EC50 [1]: 5.33 µM

Compound: Cc1nc2ccc(Oc3ccc(F)cc3)cc2c(=O)n1C[C@H]1CCCN(C(C)C)C1 [YIL781, reference compound]
- inhibition of iCa2+ evoked by N8279, ghrelin or L585 (hGHSR1a^WT): competitively inhibited

Compound: JMV2959 [reference compound]
- inhibition of iCa2+ evoked by N8279, ghrelin or L585 (hGHSR1a^WT): competitively inhibited
